Experimental data from US10350235B2, “Cationic polysaccharides for delivery of phosphoinositides to cells for therapeutic purpose” (priority 2015, dated 2019).
Blank lines part the entries; values can stand above or below the compound they belong to.

What was measured:
HEK293 cells = experiment: Autophagy flux (LC3-II western blot with and without bafilomycin A1); format: cell-based
Description: Autophagy Flux was assessed using western blot by comparing of the cumulative LC3-II levels in HEK293 cells with and without autophagy inhibitor—bafilomycin A1 (vacuolar H+ ATPase inhibitor, 0.1 μM). Bafilomycin A1 inhibits autophagosomes degradation by fusion with lysosome since it prevents the lysosome acidification. LC3-II is an autophagosomal membrane protein therefore it is used as autophagy marker. HEK293 cells were seeded in a 6-well plate 24 hours before treatment in DMEM growth media. The cells were incubated with or without bafilomycin A1 and 3-Methyladenine (3-MA) in EBSS for 2 hours (3-MA, 5 mM) in 37° C. and 5% CO2. 3-MA acts as an autophagy inhibitor since it inhibits III phosphatidylinositol 3-kinases (PI-3K) which produce the endogenous PI3P. At the second hour the cells were treated with Q-starch/PI3P complexes at N/P ratio of 2 and with PI3P alone as control (final PI3P concentration in each well was 0.5 μM).
Up-regulation of autophagy in HEK293 cells with the Q-starch/PI3P complexes was assessed by comparing the autophagy flux for the following conditions (FIG. 7): flux after 3 hours of serum starvation, flux after inhibition of the formation of endogenous PI3P by 3-MA (3-Methyladenine), flux after treatment with 3-MA and complexes at N/P ratio of 2 and flux after treatment with 3-MA and PI3P.

[1] = Zeta potential (Zetasizer, Smoluchowski model); format: physicochemical; conditions: in mV (unit assumed)
Description: The hydrodynamic size of the complexes was measured by dynamic light scattering (DLS). Spectra were collected by using CGS-3, (ALV, Langen, Germany). The laser power was 20 mW at the He—Ne laser line (632.8 nm). Correlograms were calculated by ALV/LSE 5003 correlator, which were collected at 90°, during 20 s for 10 times, at 25° C. The correlograms were fitted with version of the program CONTIN (provencher, 1982). Samples of complexes were each diluted to a final volume of 1 mL in DDW. Each sample was measured three times and solutions were further diluted until results were independent of dilution rate. Complexes' size is presented as average of triplicates. Samples from DLS were transferred to U-tube cuvette (DTS 1070, Malvern) for subsequent zeta potential measurements using Zetasizer (ZN-NanoSizer, Malvern, England). Each sample was measured at automatic mode, at 25° C. and the Smoluchowski model was used to calculate the zeta potential. For each sample the zeta potential value was presented as the average value of three runs, and the average value of each N/P ratio is presented as the average of triplicates.

[2] = Cryo-TEM imaging of complex size and geometry in solution; format: physicochemical; conditions: FIG. 3; complexes at N/P ratios of 2 to 3
Description: Complex size and geometry in solution were visualized using Cryo-TEM. TEM at cryogenic temperature (Cryo-TEM) is used for direct imaging of solutions and dispersions. Vitrified specimens are prepared on a copper grid coated with a perforated lacy carbon 300 mesh (Ted Pella Inc.). A typically 4 μl drop from the solution is applied to the grid and blotted with a filter paper to form a thin liquid film of solution. The blotted sample are immediately plunged into liquid ethane at its freezing point (−183° C.). The procedure is performed automatically in the Plunger (Lieca EM GP). The vitrified specimens are transferred into liquid nitrogen for storage. the samples are studied using a FEI Tecnai 12 G2 TEM, at 120 kV with a Gatan cryo-holder maintained at −180° C., and images are recorded on a slow scan cooled charge-coupled device CCD camera Gatan manufacturer. Images are recorded with the Digital Micrograph software package, at low dose conditions, to minimize electron beam radiation damage.

Compound: Cn1cnc(N)c2ncnc1-2 [3-MA, 3-Methyladenine]
autophagy flux (difference in LC3-II levels with and without bafilomycin A1) (HEK293 cells; 3-MA 5 mM alone, compared to serum starvation): decrease in the autophagy flux

average zeta potential ([1]; non-complexed alone (FIG. 4B): 0.5 μM PI3P, 0.45 mg/L Q-starch): −14.8±3.8
Compound: CCCCCCCC(=O)OC[C@H](COP(=O)(O)O[C@@H]1[C@H](O)[C@H](OP(=O)(O)O)[C@@H](O)[C@H](O)[C@H]1O)OC(=O)CCCCCCC [PI3P, Phosphatidylinositol 3-phosphate diC8]
autophagy flux (difference in LC3-II levels with and without bafilomycin A1) (HEK293 cells; with 3-MA 5 mM in EBSS, final PI3P 0.5 μM, complexes at N/P=2): did not affect the levels of autophagy flux

shape in cryo-TEM images [2]: shape of long filaments
average zeta potential ([1]; non-complexed component alone (FIG. 1)): −20.83
Compound: CCCCCCCCCCCCCCCC(=O)OC[C@H](COP(=O)(O)OC1[C@H](O)[C@H](OP(=O)(O)O)C(OP(=O)(O)O)[C@H](OP(=O)(O)O)[C@H]1O)OC(=O)CCCCCCCCCCCCCCC (some centres unmarked) [PIP3, phosphatidylinositol (3,4,5) trisphosphate diC16]
